Measurements published in patent publication US20230102554A1 (GB002, INC., priority 2019, published 2023).

Tests used:
[1] = target: T1, Human PDGFRα, cytoplasmic domain (GST-PDGFRα) (Homo sapiens, UniProt P16234); assay: Human PDGFRα biochemical inhibition assay (off-chip Mobility Shift Assay)
T1 construct: made in house

[2] = target: T2, Human PDGFRβ, cytoplasmic domain (GST-PDGFRβ) (Homo sapiens, UniProt P09619); assay: Human PDGFRβ biochemical inhibition assay (off-chip Mobility Shift Assay)
T2 construct: made in house
T2 sequence (P09619 with tags, fused parts or gaps): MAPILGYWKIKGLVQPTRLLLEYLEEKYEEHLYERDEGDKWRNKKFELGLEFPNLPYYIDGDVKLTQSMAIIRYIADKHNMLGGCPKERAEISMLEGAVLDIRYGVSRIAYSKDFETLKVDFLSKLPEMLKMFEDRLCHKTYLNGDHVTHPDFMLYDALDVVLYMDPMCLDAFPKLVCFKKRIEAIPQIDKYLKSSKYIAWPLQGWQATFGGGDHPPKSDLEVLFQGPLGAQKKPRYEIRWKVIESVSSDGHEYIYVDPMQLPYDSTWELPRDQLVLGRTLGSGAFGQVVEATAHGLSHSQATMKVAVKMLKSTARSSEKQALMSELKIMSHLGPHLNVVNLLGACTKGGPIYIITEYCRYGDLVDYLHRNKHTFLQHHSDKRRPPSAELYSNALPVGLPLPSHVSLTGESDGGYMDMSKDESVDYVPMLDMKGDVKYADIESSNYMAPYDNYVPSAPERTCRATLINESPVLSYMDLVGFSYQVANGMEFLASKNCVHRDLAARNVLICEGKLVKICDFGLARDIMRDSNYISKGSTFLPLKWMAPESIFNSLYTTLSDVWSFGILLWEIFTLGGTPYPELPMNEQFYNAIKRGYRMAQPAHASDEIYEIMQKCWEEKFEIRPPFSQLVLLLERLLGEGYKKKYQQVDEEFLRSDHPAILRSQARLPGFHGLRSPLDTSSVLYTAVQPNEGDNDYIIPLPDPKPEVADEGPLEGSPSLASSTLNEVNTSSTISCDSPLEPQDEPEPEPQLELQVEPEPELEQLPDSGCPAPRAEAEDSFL
Outline: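 GST-tagged cytoplasmic domain (aa 557-1106) from baculovirus was incubated 1 h at room temperature with compound, CSKtide, ATP at Km and Mg²⁺ in HEPES buffer, pH 7.5. Phosphorylated and unphosphorylated peptide were separated by off-chip mobility shift, and the product ratio P/(P+S) gave percent inhibition.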

T1 sequence (P16234 550-1089 T674I): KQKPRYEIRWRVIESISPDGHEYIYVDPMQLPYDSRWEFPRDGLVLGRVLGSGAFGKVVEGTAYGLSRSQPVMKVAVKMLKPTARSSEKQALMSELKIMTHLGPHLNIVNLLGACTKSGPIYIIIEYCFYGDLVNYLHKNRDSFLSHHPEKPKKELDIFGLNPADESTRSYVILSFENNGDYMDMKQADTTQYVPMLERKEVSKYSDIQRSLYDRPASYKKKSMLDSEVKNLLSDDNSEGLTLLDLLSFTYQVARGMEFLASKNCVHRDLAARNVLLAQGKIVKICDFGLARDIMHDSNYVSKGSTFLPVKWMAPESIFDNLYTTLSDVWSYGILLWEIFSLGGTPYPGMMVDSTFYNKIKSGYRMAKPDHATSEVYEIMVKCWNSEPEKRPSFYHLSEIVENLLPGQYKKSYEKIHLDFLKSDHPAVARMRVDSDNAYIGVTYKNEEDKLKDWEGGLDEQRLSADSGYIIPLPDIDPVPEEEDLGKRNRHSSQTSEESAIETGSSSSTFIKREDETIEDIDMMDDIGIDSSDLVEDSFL

| SMILES | IC50 [1] [nM] | IC50 [2] [nM] |
| --- | --- | --- |
| Cc1c[nH]c2ncc(N[C@@H](C)c3cccc(NC(=O)c4cnc(C5CC5)s4)c3)nc12 [Compound 571, (S)-2-cyclopropyl-N-(3-(1-((7-methyl-5H-pyrrolo[2,3-b]pyrazin-2-yl)amino)ethyl)phenyl)thiazole-5-carboxamide] | < 300 | < 300 |
| CCn1cc2ncc(N[C@@H](C)c3cc(NC(=O)Cc4ccc(C)cn4)ccc3F)nc2n1 [Compound 689, (S)-N-(3-(1-((2-ethyl-2H-pyrazolo[3,4-b]pyrazin-6-yl)amino)ethyl)-4-fluorophenyl)-2-(5-methylpyridin-2-yl) acetamide] | < 300 | ≥ 1000 |
| C[C@H](Nc1cnc2cnn(C)c2n1)c1cccc(NC(=O)c2ccc(C3CC3)s2)c1 [Compound 136, (S)-5-cyclopropyl-N-(3-(1-((1-methyl-1H-pyrazolo[3,4-b]pyrazin-6-yl)amino)ethyl)phenyl)thiophene-2-carboxamide] | < 300 | < 300 |
| C[C@H](Nc1cnc2cnn(C)c2n1)c1cccc(NC(=O)c2cnccc2F)c1 [Compound 131, (S)-4-fluoro-N-(3-(1-((1-methyl-1H-pyrazolo[3,4-b]pyrazin-6-yl)amino)ethyl)phenyl) nicotinamide] | 300 to 1000 | ≥ 1000 |
| CCn1cc2ncc(N[C@@H](C)c3cccc(NC(=O)Cc4cccc(Cl)c4)c3)nc2n1 [Compound 621, (S)-2-(3-chlorophenyl)-N-(3-(1-((2-ethyl-2H-pyrazolo[3,4-b]pyrazin-6-yl)amino)ethyl)phenyl)acetamide] | < 300 | < 300 |
| C[C@H](Nc1cnc2cnn(C)c2n1)c1cccc(NC(=O)c2cncc(O)c2)c1 [Compound 241, (S)-5-hydroxy-N-(3-(1-((1-methyl-1H-pyrazolo[3,4-b]pyrazin-6-yl)amino)ethyl)phenyl)nicotinamide] | < 300 | 300 to 1000 |
| Cc1cc(C(=O)Nc2cccc([C@H](C)Nc3cnc4cnn(C)c4n3)c2)ccc1C(=O)OCC(C)C [Compound 263, isobutyl (S)-2-methyl-4-((3-(1-((1-methyl-1H-pyrazolo[3,4-b]pyrazin-6-yl)amino)ethyl)phenyl)carbamoyl)benzoate] | < 300 | 300 to 1000 |
| CCn1cc2ncc(N[C@@H](C)c3cccc(NC(=O)c4ccc(C(F)(F)F)c(Cl)c4)c3)nc2n1 [Compound 438, (S)-3-chloro-N-(3-(1-((2-ethyl-2H-pyrazolo[3,4-b]pyrazin-6-yl)amino)ethyl)phenyl)-4-(trifluoromethyl)benzamide] | < 300 | < 300 |
| CCn1cc2ncc(N[C@@H](C)c3cc(NC(=O)c4cnc(C)c(C)c4)ccc3C)nc2n1 [Compound 509, (S)-N-(3-(1-((2-ethyl-2H-pyrazolo[3,4-b]pyrazin-6-yl)amino)ethyl)-4-methylphenyl)-5,6-dimethylnicotinamide] | < 300 | < 300 |
| Cc1cncc(C(=O)Nc2cccc([C@H](C)Nc3cnc4cnn(CC(F)F)c4n3)c2)c1 [Compound 183, (S)-N-(3-(1-((1-(2,2-difluoroethyl)-1H-pyrazolo[3,4-b]pyrazin-6-yl)amino)ethyl)phenyl)-5-methylnicotinamide] | < 300 | 300 to 1000 |

Second part, the compound after the results:

| IC50 [1] [nM] | IC50 [2] [nM] | SMILES |
| --- | --- | --- |
| 300 to 1000 | ≥ 1000 | CCn1cc2ncc(N[C@@H](C)c3cccc(NC(=O)c4ccc(CN5CC[C@H](O)C5)c(C)c4)c3)nc2n1 [Compound 471, N-(3-((S)-1-((2-ethyl-2H-pyrazolo[3,4-b]pyrazin-6-yl)amino)ethyl)phenyl)-4-(((S)-3-hydroxypyrrolidin-1-yl)methyl)-3-methylbenzamide] |
| ≥ 1000 | ≥ 1000 | CCn1cc2ncc(N[C@@H](C)c3cccc(NC(=O)c4cnc5[nH]ncc5c4)c3)nc2n1 [Compound 60, (S)-N-(3-(1-((2-ethyl-2H-pyrazolo[3,4-b]pyrazin-6-yl)amino)ethyl)phenyl)-1H-pyrazolo[3,4-b]pyridine-5-carboxamide] |
| < 300 | < 300 | C[C@H](Nc1cnc2cnn(C)c2n1)c1cccc(NC(=O)c2ccc3c(c2)COC3=O)c1 [Compound 67, (S)-N-(3-(1-((1-methyl-1H-pyrazolo[3,4-b]pyrazin-6-yl)amino)ethyl)phenyl)-1-oxo-1,3-dihydroisobenzofuran-5-carboxamide] |
| < 300 | < 300 | CCn1cc2ncc(N[C@@H](C)c3cccc(NC(=O)c4ccc(CN5CCOCC5)c(C)c4)c3)nc2n1 [Compound 403, (S)-N-(3-(1-((2-ethyl-2H-pyrazolo[3,4-b]pyrazin-6-yl)amino)ethyl)phenyl)-3-methyl-4-(morpholinomethyl) benzamide] |
| < 300 | < 300 | Cc1cncc(C(=O)Nc2cccc([C@H](C)Nc3cnc4[nH]nc(Cl)c4n3)c2)c1 [Compound 550, (S)-N-(3-(1-((3-chloro-1H-pyrazolo[3,4-b]pyrazin-5-yl)amino)ethyl)phenyl)-5-methylnicotinamide] |
| < 300 | ≥ 1000 | CCn1cc2ncc(N[C@@H](C)c3cccc(NC(=O)Cc4ccc(Cl)cn4)c3)nc2n1 [Compound 681, (S)-2-(5-chloropyridin-2-yl)-N-(3-(1-((2-ethyl-2H-pyrazolo[3,4-b]pyrazin-6-yl)amino)ethyl)phenyl)acetamide] |
| < 300 | 300 to 1000 | C[C@H](Nc1cnc2cnn(C)c2n1)c1cccc(NC(=O)c2ccc(S(C)(=O)=O)cc2)c1 [Compound 220, (S)-N-(3-(1-((1-methyl-1H-pyrazolo[3,4-b]pyrazin-6-yl)amino)ethyl)phenyl)-4-(methylsulfonyl)benzamide] |
| < 300 | ≥ 1000 | CCn1cc2ncc(N[C@@H](C)c3cccc(NC(=O)Nc4cnn(CC5CC5)c4)c3)nc2n1 [Compound 741, (S)-1-(1-(cyclopropylmethyl)-1H-pyrazol-4-yl)-3-(3-(1-((2-ethyl-2H-pyrazolo[3,4-b]pyrazin-6-yl)amino)ethyl)phenyl)urea] |
| < 300 | < 300 | CC(C)n1cc(C(=O)Nc2cccc([C@H](C)Nc3cnc4cnn(C)c4n3)c2)cn1 [Compound 147, (S)-1-isopropyl-N-(3-(1-((1-methyl-1H-pyrazolo[3,4-b]pyrazin-6-yl)amino)ethyl)phenyl)-1H-pyrazole-4-carboxamide] |
| < 300 | < 300 | C[C@H](Nc1cnc2[nH]ccc2n1)c1cccc(NC(=O)c2cnn(C3CCC3)c2)c1 [Compound 598, (S)-N-(3-(1-((5H-pyrrolo[2,3-b]pyrazin-2-yl)amino)ethyl)phenyl)-1-cyclobutyl-1H-pyrazole-4-carboxamide] |
| 300 to 1000 | ≥ 1000 | CCn1cc2ncc(N[C@@H](C)c3cccc(NC(=O)c4cnc(NC5CCOCC5)c(C)c4)c3)nc2n1 [Compound 351, (S)-N-(3-(1-((2-ethyl-2H-pyrazolo[3,4-b]pyrazin-6-yl)amino)ethyl)phenyl)-5-methyl-6-((tetrahydro-2H-pyran-4-yl)amino)nicotinamide] |
| < 300 | 300 to 1000 | Cc1cncc(C(=O)Nc2cccc([C@H](C)Nc3cnc4ccc(C(F)(F)F)cc4n3)c2)c1 [Compound 34, (S)-5-methyl-N-(3-(1-((7-(trifluoromethyl)quinoxalin-2-yl)amino)ethyl)phenyl) nicotinamide] |
